Test results as given in PMC11181478, “SARS-CoV-2 Main Protease Inhibitors That Leverage Unique Interactions with the Solvent Exposed S3 Site of the Enzyme” (ACS Medicinal Chemistry Letters, 2024).

System: SARS-CoV-2 delta variant (hCoV-19/USA/MD-HP05647/2021)
Assay: Live virus antiviral test in A549-hACE2 cells (RT-qPCR)
Assay type: cell-based
Details: Severe acute respiratory syndrome coronavirus 2, 72 h

CC1(C)[C@@H]2[C@@H](C(=O)N[C@H](C=O)C[C@@H]3CCNC3=O)N(C(=O)[C@H](CC3CCCCC3)NC(=O)OCc3ccccc3)C[C@@H]21 [MPI100]
EC50: 3.4 µM
